From US20260306421A1, “SYSTEMS AND METHODS FOR TRANSDERMAN PATCH DELIVERY” (VITAMAX PATCH WHOLESALER LLC, priority 2022, published 2026)
In brackets after ≈: the same amount, converted by molar mass. Read-outs that look alike come from different tables or passages of the source. Marks after values point to notes of the source that are not given here. Values belong to the compound of their own block, whether it stands above or below them.

Columns and labels:
[1] = Solubility of iron chloride hexahydrate and iron complexes (visual / assayed); format: physicochemical
Protocol: Due to the high number of test samples (6 complexes plus the starting material, iron chloride hexahydrate) a visual solubility screen was used to screen the solubility in a range of solvents. […] Quantitative determination was performed by either incubating the complex in excess in the solvent using a shaking 37° C. water bath for 48 h or sonicating it for 2 hours at 40° C. or leaving overnight on a 50° C. hot plate. Once incubation period was completed, the exact solubility in a particular solvent was assayed (using the iron assay) after centrifugation (i.e. assay iron content in the supernatant using the Ferrozine® assay).

[2] = Iron complex adhesive compatibility and loading screen; format: physicochemical
Protocol: Pre-formulation studies were performed to determine the compatibility of the iron complexes with a range of transdermal patch adhesives (Table 15).
The compatibility of the complexes with the patch adhesives was assessed by mixing and visually checking the clarity of the mixture.
In the adhesives that were computable with the iron complexes the maximum drug loading of the complexes in the adhesive following solvent evaporation was determined. This was achieved by mixing the drug, adhesive and co-solvents until a clear solution was obtained at different drug:adhesive ratios and placing few drops of the mixture onto the patch backing sheet, leaving it to dry for 3-4 h, and examining the formed film on the surface of the backings for evidence of drug crystals.
Following complete drying of the solvents, the adhesive layer was covered by a release liner, compressed, and then cut using 34 mm circular manual die cutter (FIG. 23).

[3] = Solubility of zinc chloride and zinc complexes (visual / HPLC); format: physicochemical
Protocol: Accurate measurement of the solubility was then repeated for some of the solvent systems by HPLC. In the HPLC solubility studies, an excess of the test agents was loaded into 2 mL of each test solvent. The solutions were left stirring overnight at 32° C. […] The drug suspensions were then centrifuged, the supernatant diluted, and each sample concentration was measured using HPLC.

[4] = Solubility of cholecalciferol and cholecalciferol phosphate (disodium, acid); format: physicochemical; details: read-out: Solubility
Protocol: Aliquots of cholecalciferol, cholecalciferol phosphate disodium, and cholecalciferol phosphate acid were added to a range of solvents including propylene glycol (PG), distilled water, methanol, ethyl acetate, ethanol, n-hexane, and the visual solubility was determined. A precise assessment of the saturation solubility was for some of the solvent systems was made using high-performance liquid chromatography (HPLC). In the HPLC solubility studies, an excess of each solute was added into 2 mL of each test solvent. The solutions were left stirring overnight at room temperature, (RT), 22° C. The saturation of the solutions was confirmed by the visual appearance of crystals and the drug suspensions were filtered through 0.2 μm cellulose acetate syringe filters, diluted with excess of mobile phase, and the solute concentration of each sample was assessed using HPLC.

[5] = Chemical stability of cholecalciferol and cholecalciferol phosphate disodium in donor, extraction and receiver fluids; format: physicochemical; details: for remaining at 24 h: 37° C.
Protocol: To assess the chemical stability of the test agents in the liquids in which they were to be dissolved for the skin permeation experiments, 1 mg/mL solutions of cholecalciferol and cholecalciferol phosphate disodium in propylene glycol (PG) were prepared and incubated at 37° C. for 24 h. In addition, 100 μg/mL cholecalciferol in 50:50 PG:ethanol mixture, 100 μg/mL cholecalciferol phosphate disodium in 90:10 methanol:water mixture as well as and in 50% PG 40% Methanol: 10% water pH 3.2 (90:10) were also incubated at 37° C. for 24 hours.

[6] = Franz cell porcine skin permeation and deposition of iron from solutions; format: in vitro ADME
Protocol: The permeation of the iron complexes from the formulations into and across porcine skin mounted on Franz cells with a receiver fluid was tested (FIG. 4). This was based on the principles of the FDA, SUPAC-SS guidelines. The developed colorimetric assay method was used for iron quantification.
On the day of the experiment, the skin was defrosted. For the full thickness studies, the subcutaneous fat removed (2.5 mm thick) and for the dermatomes skin studies the tissued was dermatomed to a 1 mm thickness. The tissue was cut into the appropriate size sections (2.19±0.21 cm^2) and mounted between donor and receiver compartments of Franz diffusion cells with the SC facing the donor compartment. Each cell was sealed using parafilm and 12 mm magnetic stir bars were placed into the receiver compartment. The receiver compartment was filled with the desired receiver solution and the Franz cells were placed in a stirring water bath at 37° C. Cells were allowed to equilibrate for 30 min after which the receiver fluid using was mixed using a syringe and the “zero hour” sample was withdrawn from the arm and compensate with the same volume of fresh pre-warmed solution. Following zero-hour sampling, the donor solution was placed in the donor compartment and covered with parafilm. Samples were withdrawn and compensated with fresh receiver solution at set time intervals for a 24 h duration. The iron in each sample was quantified using the method specified in Section 2.2.2.1. […] There was no matrix interference noted in the assay. […] For iron maltol a 80:20 PG:water receiver was used along with a complementary calibration for iron assay (iron chloride in PG:water). The donor solution for the iron maltol made at pH 1.6 was 200 μL of 100 mg/mL complex in Transcutul®, for iron maltol made at pH 4 the donor solution was 200 μL of 23 mg/mL complex in PG and for iron maltol made at pH 4 the donor solution was 150 μL of 16 mg/mL complex in 7.5:1.5:1:1 water:PG:dimethicone:ethanol.
Once the permeation studies were completed the donor solutions were collected into bottles containing the extraction solution. This was followed by skin surface cleaning using four cotton buds, the first two were wetted by the extraction fluid and the second two were used dry. Then two tape striping procedures were performed using 2 tapes to remove any iron on the skin surface with the tape being added to the donor solution and cotton buds in the donor recover vial. For the full skin thickness skin, the Stratum corneum, the dermal and the epidermal layers were isolated in the same way as the recovery method (Section 2.3.2.1). Extraction fluid (50:50 PBS:ethanol) was then added to the tissues, 4 mL to the Stratum corneum, and 2 mL for each of the epidermis and dermis. For the dermatomed skin the whole skin section was chopped up and placed in a 2 mL extraction fluid (ethanol).
The Stratum corneum samples were placed on vibrating plate for a minimum of 2 h to extract the iron and then vortexed prior assay. The epidermis, dermis or dermatomed samples however were incubated with the extraction fluid for 1 h after which were transferred to Eppendorf tubes, one stainless steel 5 mm bead was added and the samples were loaded into the TissuLyser II (Qiagen, Germany) for 30-15 min at 30 Hz. The samples were then centrifuged (5 min at 13,000 rpm) and supernatant assayed.

[7] = Iron complex reservoir solvent solubility screening; format: physicochemical
From the text: Iron complex was again screened with a range of suitable excipients and solvents to formulate a solution of high concentration that could be loaded into the patch reservoir. The solvents screened included ethanol, methanol, PG, PEG400, SDS, Tween 85, Span 20, Kolliphore®, Natrsol M250 and dimethicone (Note: methanol is not suitable for formulation but it was used to increase solubility in the other solvents. It was evaporated prior to formulation testing).

[8] = donor liquid paraffin:ethanol, 24 h
[9] = Iron maltol made at pH 7.4, 10 mg complex, 62.5 μL PG, 60 μL ethanol, 125 μL water, 62.5 μL Kolliphore
[10] = Iron maltol made at pH 7.4, 10 mg complex, 125 μL PG, 60 μL ethanol, 62.5 μL water, 62.5 μL Kolliphore

Compound: CCc1occc(=O)c1[O-].CCc1occc(=O)c1[O-].CCc1occc(=O)c1[O-].[Fe+3] [Iron ethyl maltol made at pH 4, iron ethyl maltol]
Solubility of complex ([1]; PEG400): 15 mg/mL Iron | Solubility, equivalent elemental iron ([1]; PEG400): (1.8 mg/mL | Solubility of complex ([1]; PG): 8.3 mg/mL Iron | Solubility, equivalent elemental iron ([1]; PG): 1 mg/ml mg/mL

Compound: CCc1occc(=O)c1[O-].CCc1occc(=O)c1[O-].CCc1occc(=O)c1[O-].[Fe+3] [Iron ethyl maltol made at pH 7.4, iron ethyl maltol]
Solubility of complex (visual) ([1]; PEG400): <8 mg/mL Iron | Solubility of complex ([1]; PG): 2.7 mg/mL Iron | Solubility, equivalent elemental iron ([1]; PG): 320 µg/mL | Solubility of complex ([1]; Saline): 360 μg/mL Iron | Solubility, elemental iron ([1]; Saline): (44 μg/mL | Solubility in DURO-TAK 9301 patch ([2]; drug loading 2.5-10%, no permeation enhancer): Precipitated | Solubility in DURO-TAK 9301 patch ([2]; drug loading 4%, 2 mg PEG400): Clear | Solubility in DURO-TAK 9301 patch ([2]; drug loading 4%, 2 mg PG): Clear | Solubility in DURO-TAK 9301 patch ([2]; drug loading 4%, no permeation enhancer): Clear | Solubility in DURO-TAK 9301 patch ([2]; drug loading 5%, 2.5 mg Transcutol): Precipitated | Solubility in DURO-TAK 9301 patch ([2]; drug loading 5%, 2.6 mg PEG400): Precipitated | Solubility in DURO-TAK 9301 patch ([2]; drug loading 5%, 5 mg PEG400): Precipitated | Solubility in DURO-TAK 9301 patch ([2]; drug loading 5%, 5 mg Transcutol): Clear | Solubility in DURO-TAK 9301 patch ([2]; drug loading 6%, 3.3 mg PEG400): Precipitated | Solubility in DURO-TAK 9301 patch ([2]; drug loading 7.5%, 4 mg Transcutol): Precipitated | Solubility in DURO-TAK 9301 patch ([2]; drug loading 7.5-10%, 4-5.5 mg PG): Precipitated | Solubility in DURO-TAK 9301 patch ([2]; drug loading 10-7.5%, 5.5-4 mg PEG400): Precipitated

Compound: [Cl-].[Cl-].[Zn+2] [Zinc Chloride, Zinc chloride, reference compound]
Elemental zinc solubility (visual) ([3]; solvent PEG400, visual solubility (*)): ~2.7* mg/mL | Elemental zinc solubility evaluated by HPLC ([3]; solvent PG): 2700 µg/mL

Compound: C=C1CC[C@H](O)C/C1=C/C=C1\CCC[C@]2(C)[C@@H]([C@H](C)CCCC(C)C)CC[C@@H]12 [Cholecalciferol, reference compound]
Solubility ([4]; organic solvent or mixture, solvent PG): 7800 ± 190 µg/mL (≈ 20.3 mM) | Solubility ([4]; solvent PG + 5% water): 2400 ± 2 µg/mL | Solubility ([4]; solvent PG + 10% water): 1100 ± 5 µg/mL | Solubility ([4]; solvent PG + 20% water): 700 ± 4 µg/mL | remaining at 24 h ([5]; PG): 93 ± 13% | chemical stability (in words) ([5]; conclusions): indication of chemical instability | remaining at 24 h ([5]; extraction fluid 50:50 PG:ethanol): 92 ± 8%

Compound: Cc1occc(=O)c1[O-].Cc1occc(=O)c1[O-].Cc1occc(=O)c1[O-].[Fe+3] [Iron maltol, iron maltol]
Solubility of complex (visual) ([1]; Chloroform): ≥20 mg/mL Iron | Solubility of complex (visual) ([1]; Ethanol): ≥6 mg/mL Iron maltol* | Solubility of complex (visual) ([1]; Ethyl acetate): <6 mg/mL Iron maltol* | Solubility of complex (visual) ([1]; Hexane): <6 mg/mL Iron maltol* | Solubility of complex (visual) ([1]; Methanol): ≥18 mg/mL Iron | Solubility of complex (visual) ([1]; Oleic acid): <6 mg/mL Iron maltol* | Solubility of complex (visual) ([1]; Propanol): <6 mg/mL Iron maltol* | Solubility of complex (visual) ([1]; Triaceten): <6 mg/mL Iron maltol* | compatibility with adhesives [2]: only compatible with DURO-TAK 9301 | (maximum) complex loading achieved in adhesive ([2]; methanol stock solution 10 mg/mL): 4% | complex loading achieved in adhesive patch ([2]; methanol stock solution 18 mg/mL): 8.5% | Observation (solubility, complex) ([7]; Iron maltol made at pH 4, 10 mg complex, 50 μL 2% Nitrosol, 50 μL PG): 22000 µg/mL | Observation ([7]; Iron maltol made at pH 4, 20 mg complex, 0.1 mL Kolliphore, 0.1 mL PEG400): Precipitated | Observation ([7]; Iron maltol made at pH 4, 20 mg complex, 0.1 mL Kolliphore, 0.1 mL PEG400, 10% SDS): Precipitated | Observation ([7]; Iron maltol made at pH 4, 20 mg complex, 0.2 mL Kolliphore): Precipitated | Observation ([7]; Iron maltol made at pH 4, 100 mg complex, 2 mL methanol, 1 mL 80:20 PEG400:PEG1000, precipitate upon methanol evaporation): Precipitate | Observation [7, 9]: Clear | Visual solubility (complex) [7, 9]: (32 mg/mL | Observation ([7]; Iron maltol made at pH 7.4, 10 mg complex, 62.5 μL PG, 62.5 μL water, 125 μL Kolliphore): Precipitated | Observation [7, 10]: Clear | Visual solubility (complex) [7, 10]: (32 mg/mL | Observation ([7]; Iron maltol made at pH 7.4, 20 mg complex, 6 μL Span 20, 0.125 mL ethanol, 0.5 mL PG): Precipitated | Observation ([7]; Iron maltol made at pH 7.4, 30 mg complex, 6 μL Tween 85, 0.125 mL ethanol, 0.5 mL PG): Precipitated | Observation ([7]; Iron maltol made at pH 7.4, 40 mg complex, 12 mg SDS, 0.125 mL ethanol, 0.5 mL PG): Precipitated

Now from value to compound, other results behind:

deposition, all layers combined ([6]; donor Miglyol, 24 h): 3.7 μg/cm^2 | elemental iron permeated the skin ([6]; donor Miglyol, 24 h): 2.5±1.8 μg/cm^2 | deposition, all layers combined [6, 8]: 5.3 μg/cm^2 | elemental iron permeated the skin [6, 8]: 4.4±1.5 μg/cm^2
Compound: iron oleate

deposition into the skin ([6]; applied to the skin as a PG solution): 8 μg/cm^2 | permeation and deposition in the skin ([6]; solutions, 24 h): permeated and deposited in the skin
Compound: CCC(=O)[O-].CCC(=O)[O-].CCC(=O)[O-].[Fe+3] [Iron propionate made at pH 4, iron propionate]
iron passing through the skin ([6]; applied as solution): neither the patch nor the solution allowed iron to pass through the skin
